Type in all cases: in vivo, male mice (ddY-strain)
The subject of data set [1] is mice. Description: Acute toxicity (oral, 72 hours). As to conditions: for Safety margin (LD50 /ED50): potency ratio of the acute toxicity to the muscle relaxing activity, oral, mice. As for the experimental part:
(§1) A test compound dissolved or suspended in an aqueous 0.5% carboxymethylcellulose sodium salt solution was administered orally to a group of six male mice (ddY-strain, body weight: 18-20 g). The 50% lethal dose (LD50) of the test compound was calculated according to the probit method from the number of mice which died within a period of 72 hours after administration.

A short description of data set [2]: Acute toxicity (oral, 72 hours). As to conditions: mouse, in vivo; oral, mice, deaths within 72 hours, probit method. As for the experimental part:
as §1

The test system of data set [3] is mice. Briefly: Muscle relaxing activity (the rotating rod method). As for the experimental part: A test compound dissolved or suspended in an aqueous 0.5% carboxymethylcellulose sodium salt solution was administered orally to a group of three male mice (ddY-strain, body weight: 18-20 g). After administration of the test compound, the mice were placed on a rotating rod (3.5 cm in diameter, 7.5 r.p.m.) at intervals, and the number of mice which fell out of the rod at least twice within one minute was counted. The 50% effective dose (ED50) of the test compound was calculated therefrom according to the probit method.

These results are taken from patent publication US4714702A, “Quinazolinone derivative” (Tanabe Seiyaku Co., Ltd., priority 1983, dated 1987).

In the case of `Cc1ccccc1OCC(O)CO` (stereo not drawn) [Mephenesin, 3-(o-tolyloxy)-1,2-propanediol, reference compound], the “Safety margin (LD50 /ED50)” value in the data set with mice [1] is reported as 4.06.
In the case of `Cc1cc(Cl)ccc1-n1c(CF)nc2ccc(N)cc2c1=O` [Test compound 1, 2-fluoromethyl-3-(2-methyl-4-chlorophenyl)-6-amino-4(3H)-quinazolinone], the “safety margin, times as high as that of Mephenesin” value in the data set with mice [1] (acute toxicity to muscle relaxing activity ratio, relative to Mephenesin) was “about 12.7 times”. In addition, the “Safety margin (LD50 /ED50)” value in the data set on mice [1] came out at 51.6. The same compound showed an LD50 at 72 h in data set [2] of 702 mg/kg. In addition, in the data set with mice [3] (Mus musculus, oral, mice, rotating rod, probit method), the ED50 is 13.6 mg/kg. In the data set on mice [3] (rotating rod method (mice), relative to Mephenesin), the “muscle relaxing activity, times stronger than that of Mephenesin” value is “about 36.6 times”.

As a reminder, the LD50 is the dose at which mortality reaches 50%. A higher LD50 goes with lower toxicity. One may read the ED50 as the dose that gives a 50% effect, or the effect in half of the subjects. Low readings indicate greater potency, high ones weaker potency.
